Laboratory results as given in US20040110731A1, “Photodynamic therapy for the treatment of non-melanoma skin cancer” (priority 2002, published 2004).

Experiments:
[1] = Verteporfin PDT in patients, physician visual grading of cosmetic outcome of treated sites (color, profile, texture); assay type: in vivo, human; conditions: 14 mg/m^2 BPD-MA IV
Method: (§1) Visudyne^1 was diluted to 30 ml with 5% dextrose in water. This solution was then administered intravenously by a ten minute infusion to fifty-four patients having multiple non-melanoma skin tumors. The final concentration of BPD-MA administered was 14 mg per m^2 of body surface area. The body surface area was calculated by taking the square root of the […] of (height (cm)×weight (kg))÷3600. ^1 available from Movartis Opthalmics, Duluth, Ga. 30097, USA.
(§2) One to three hours after the start of drug infusion the patients either had their tumors treated with a light dose of 60 or 120 J/cm^2 (as comparative examples) or with a light dose of 180 J/cm^2 according to the invention. The light doses were all of red (688 nm) LED light with a fluence rate of 200 mW/cm^2. A total of 421 tumors were treated. 194 received 60 J/cm^2, 117 received 120 J/cm^2, and 110 received 180 J/cm^2.
(§3) The efficacy of the treatment and the cosmetic outcome were assessed at 6 months and 24 months from the start of treatment. As a measure of efficacy, each treatment site was visually assessed by a physician to see if it was tumor free. The percentage of treatment sites that were judged to be free of tumors is shown in Table 1 (Clinical Complete Response). The treatment sites were also visually graded by the physician to assess the Cosmetic Outcome. Each tumor site was graded as an excellent, good, satisfactory, or less than satisfactory based on the color, profile, and texture of each treated site.

[2] = tested on: multiple non-melanoma skin tumors; test: Verteporfin PDT in patients, visual assessment of treatment sites for clinical complete response (tumor free); assay type: in vivo, human; conditions: for Clinical Complete Response (percentage of treatment sites judged free of tumors): 14 mg/m^2 BPD-MA IV
Method: as §1, §2
Tumors were examined for clinical response after 3 months.
as §3

[3] = tested on: non-melanoma skin cancers; conditions: cited from earlier work
[4] = 6 months, light dose 60 J/cm^2 (comparative), 688 nm
[5] = 6 months, light dose 120 J/cm^2 (comparative), 688 nm
[6] = 6 months, light dose 180 J/cm^2, 688 nm
[7] = 24 months, light dose 60 J/cm^2 (comparative), 688 nm
[8] = 24 months, light dose 120 J/cm^2 (comparative), 688 nm
[9] = 24 months, light dose 180 J/cm^2, 688 nm

benzoporphyrin derivative monoacid A ring [Visudyne]
Tumor Cosmetic Outcome (percentage of treatment sites judged satisfactory or better) [1, 4]: 90.6%
Tumor Cosmetic Outcome (percentage of treatment sites judged satisfactory or better) [1, 5]: 87.5%
Tumor Cosmetic Outcome (percentage of treatment sites judged satisfactory or better) [1, 6]: 64.8%
Tumor Cosmetic Outcome (percentage of treatment sites judged satisfactory or better) [1, 7]: 91.8%
Tumor Cosmetic Outcome (percentage of treatment sites judged satisfactory or better) [1, 8]: 76.4%
Tumor Cosmetic Outcome (percentage of treatment sites judged satisfactory or better) [1, 9]: 85.5%
Clinical response of tumors ([2]; 3 months, tumors on six patients of the comparative 60 J/cm^2 group): no response
Clinical Complete Response (percentage of treatment sites judged free of tumors) [2, 4]: 78.3%
Clinical Complete Response (percentage of treatment sites judged free of tumors) [2, 5]: 88.5%
Clinical Complete Response (percentage of treatment sites judged free of tumors) [2, 6]: 98.0%
Clinical Complete Response (percentage of treatment sites judged free of tumors) [2, 7]: 51.3%
Clinical Complete Response (percentage of treatment sites judged free of tumors) [2, 8]: 78.6%
Clinical Complete Response (percentage of treatment sites judged free of tumors) [2, 9]: 95.4%
Clinical response ([3]; 60 J/cm^2): relatively poor clinical response
Cosmetic outcome ([3]; 180 J/cm^2): relatively poor cosmetic outcome
Cosmetic results with tumor clearing ([3]; light fluence 120 J/cm^2): good to excellent
